The numbers were not newly measured in patent publication US20110071136A1, “NOVEL TRICYCLIC PROTEIN KINASE MODULATORS” (CYLENE PHARMACEUTICALS, INC, priority 2009, published 2011), which cites them from elsewhere.

Data set [1] has as its system leukemic cells from AML patients. Particulars: Fedorov et al., PNAS 104(51), 20523-28.
The next data set has as its system MOLM-13 (AML). Particulars: MOLM-13 (AML) xenograft model; 2008 AACR Annual Meeting, Abstract No. 4974.
Another data set relates to MV-4-11 (AML). Particulars: MV-4-11 (AML) xenograft model; 2008 AACR Annual Meeting, Abstract No. 4974.

For the molecule `CN(C)C[C@@H]1CCn2cc(c3ccccc32)C2=C(C(=O)NC2=O)c2cn(c3ccccc23)CCO1` [Ly5333'531], the “cell growth and cell death” value in data set [1] is “suppressed cell growth and induced cell death”.
Take `CN1CCC(CNc2ccc3ncc(-c4cccc(OC(F)(F)F)c4)n3n2)CC1` [SGI-1776]: the tumor regression result with MOLM-13 (AML) and in the data set with MV-4-11 (AML) was “significant tumor regression” throughout.
